Experiment: xn = mol fraction of the nth substance listed
Details: Liquid, Vibrating tube method

CCCCn1cc[n+](C)c1.F[B-](F)(F)F [1-butyl-3-methylimidazolium tetrafluoroborate] + CO
Details | mass density [kg/m3]
323.15 K, 10080 kPa, x1 = 0.2626 | 1052.82
323.15 K, 10090 kPa, x1 = 0.4988 | 1131.48
323.15 K, 10140 kPa, x1 = 0.1302 | 960.32
323.15 K, 10160 kPa, x1 = 0.0433 | 854.23
323.15 K, 10340 kPa, x1 = 0.7501 | 1173.44
323.15 K, 11020 kPa, x1 = 0.0087 | 792.32
323.15 K, 15060 kPa, x1 = 0.2626 | 1056.14
323.15 K, 15120 kPa, x1 = 0.1302 | 964.14
323.15 K, 15250 kPa, x1 = 0.0433 | 858.75
323.15 K, 15420 kPa, x1 = 0.4988 | 1134.4
323.15 K, 15430 kPa, x1 = 0.7501 | 1176.04
323.15 K, 15440 kPa, x1 = 0.0087 | 796.64
323.15 K, 15470 kPa, x1 = 0.9102 | 1192.72
323.15 K, 20070 kPa, x1 = 0.7501 | 1178.36
323.15 K, 20090 kPa, x1 = 0.9102 | 1194.92
323.15 K, 20110 kPa, x1 = 0.1302 | 967.85
323.15 K, 20340 kPa, x1 = 0.0433 | 863.04
323.15 K, 20430 kPa, x1 = 0.2626 | 1059.59
323.15 K, 20640 kPa, x1 = 0.0087 | 801.47
323.15 K, 20740 kPa, x1 = 0.4988 | 1137.33
323.15 K, 25030 kPa, x1 = 0.4988 | 1139.71
323.15 K, 25090 kPa, x1 = 0.7501 | 1180.84
323.15 K, 25120 kPa, x1 = 0.1302 | 971.44
323.15 K, 25310 kPa, x1 = 0.9102 | 1197.38
323.15 K, 25630 kPa, x1 = 0.0433 | 867.24
323.15 K, 25660 kPa, x1 = 0.0087 | 805.89
323.15 K, 25810 kPa, x1 = 0.2626 | 1062.91
323.15 K, 29940 kPa, x1 = 0.0433 | 870.48
323.15 K, 30010 kPa, x1 = 0.4988 | 1142.47
323.15 K, 30090 kPa, x1 = 0.2626 | 1065.44
323.15 K, 30410 kPa, x1 = 0.7501 | 1183.41
323.15 K, 30440 kPa, x1 = 0.1302 | 975.12
323.15 K, 30450 kPa, x1 = 0.9102 | 1199.76
323.15 K, 30560 kPa, x1 = 0.0087 | 809.96
323.15 K, 35210 kPa, x1 = 0.0433 | 874.21
323.15 K, 35240 kPa, x1 = 0.2626 | 1068.37
323.15 K, 35240 kPa, x1 = 0.4988 | 1145.39
323.15 K, 35240 kPa, x1 = 0.7501 | 1185.69
323.15 K, 35450 kPa, x1 = 0.0087 | 813.8
323.15 K, 35620 kPa, x1 = 0.1302 | 978.57
323.15 K, 35860 kPa, x1 = 0.9102 | 1202.22
323.15 K, 39410 kPa, x1 = 0.0087 | 816.73
323.15 K, 39620 kPa, x1 = 0.1302 | 981.14
323.15 K, 39860 kPa, x1 = 0.9102 | 1204.01
323.15 K, 39890 kPa, x1 = 0.0433 | 877.31
323.15 K, 39890 kPa, x1 = 0.7501 | 1187.86
323.15 K, 39970 kPa, x1 = 0.2626 | 1070.95
323.15 K, 39970 kPa, x1 = 0.4988 | 1148.04
348.15 K, 340 kPa, x1 = 0.1302 | 931.46
348.15 K, 420 kPa, x1 = 0.9102 | 1166.95
348.15 K, 610 kPa, x1 = 0.4988 | 1107.55
348.15 K, 640 kPa, x1 = 0.0087 | 757.2
348.15 K, 710 kPa, x1 = 0.0433 | 821.46
348.15 K, 860 kPa, x1 = 0.2626 | 1026.35
348.15 K, 870 kPa, x1 = 0.7501 | 1150.03
348.15 K, 5060 kPa, x1 = 0.2626 | 1029.49
348.15 K, 5070 kPa, x1 = 0.7501 | 1152.55
348.15 K, 5310 kPa, x1 = 0.9102 | 1169.75
348.15 K, 5370 kPa, x1 = 0.0433 | 826.71
348.15 K, 5410 kPa, x1 = 0.4988 | 1110.43
348.15 K, 5710 kPa, x1 = 0.1302 | 936.68
348.15 K, 6020 kPa, x1 = 0.0087 | 763.72
348.15 K, 10060 kPa, x1 = 0.4988 | 1113.45
348.15 K, 10060 kPa, x1 = 0.7501 | 1155.48
348.15 K, 10070 kPa, x1 = 0.9102 | 1172.42
348.15 K, 10410 kPa, x1 = 0.2626 | 1033.58
348.15 K, 10670 kPa, x1 = 0.0433 | 832.4
348.15 K, 10820 kPa, x1 = 0.1302 | 941.38
348.15 K, 10960 kPa, x1 = 0.0087 | 769.43
348.15 K, 15090 kPa, x1 = 0.2626 | 1037.07
348.15 K, 15120 kPa, x1 = 0.0087 | 774.02
348.15 K, 15120 kPa, x1 = 0.4988 | 1116.66
348.15 K, 15140 kPa, x1 = 0.1302 | 945.16
348.15 K, 15150 kPa, x1 = 0.0433 | 836.97
348.15 K, 15420 kPa, x1 = 0.9102 | 1175.35
348.15 K, 15870 kPa, x1 = 0.7501 | 1158.8
348.15 K, 20070 kPa, x1 = 0.4988 | 1119.71
348.15 K, 20080 kPa, x1 = 0.7501 | 1161.16
348.15 K, 20110 kPa, x1 = 0.0433 | 841.77

Source: the NIST ThermoML archive (doi:10.1016/j.jct.2008.05.005)
